In US20250313575A1, “MACROCYCLES AS LRRK2 INHIBITORS, PHARMACEUTICAL COMPOSITIONS, AND USES THEREOF” (Merck Sharp & Dohme LLC, priority 2022, published 2025):

Target: GST-tagged truncated human mutant G2019S LRRK2 (Homo sapiens (Human), UniProt Q5S007, G2019S)
Assay: LRRK2 G2019S Km ATP LanthaScreen assay
Assay type: biochemical
Settings: G2019S LRRK2, 134 μM ATP (Km ATP), LRRKtide substrate
Method: Unless otherwise noted, all reactions are magnetically allowed to stir, diethyl ether used in the experiments described below is Fisher ACS certified material stabilized with BHT, and “concentrated” and/or “solvent removed under reduced pressure” means evaporating the solvent from a solution or mixture using a rotary evaporator or vacuum pump. Unless otherwise noted, flash chromatography is carried out on a Teledyne Isco (Lincoln, NE), Analogix (Burlington, WI), or Biotage (Stockholm, SWE) automated chromatography system using a commercially available cartridge as the column. Columns may be purchased from Teledyne Isco, Analogix, Biotage, Varian (Palo Alto, CA), or Supelco (Bellefonte, PA) and are usually filled with silica gel as the stationary phase. Reverse phase prep-HPLC conditions, where used, can be found at the end of each experimental section. Aqueous solutions were concentrated on a Genevac (Ipswich, ENG) or by freeze-drying/lyophilization. Unless otherwise noted, all LRRK2 pIC50 data presented in tables refers to the LRRK2 G2019S Km ATP LanthaScreen™ assay (Life Technologies Corp., Carlsbad, CA) that is described in the Biological Assay section.
The LRRK2 kinase activity reported herein as IC50 values was determined with LanthaScreen™ technology from Life Technologies Corporation (Carlsbad, CA) using GST-tagged truncated human mutant G2019S LRRK2 in the presence of the fluorescein-labeled peptide substrate LRRKtide, also from Life Technologies. The data presented for the […] depending on the specific conditions and reagents used. Assays were performed in the presence of 134 μM ATP (Km ATP). Upon completion, the assay was stopped and phosphorylated substrate detected with a terbium (Tb)-labeled anti-pERM antibody (cat. no. PV4898). The compound dose response was prepared by diluting a 10 mM stock of compound to a maximum concentration of 9.99 μM in 100% dimethylsulfoxide followed by custom fold serial dilution in dimethylsulfoxide nine times. Twenty nanoliters of each dilution was spotted via a Labcyte Echo onto a 384-well black-sided plate (Corning 3575) followed by 15 μl of a 1.25 nM enzyme solution in 1× assay buffer (50 mM Tris pH 8.5, 10 mM MgCl2, 0.01% Brij-35, 1 mM EGTA, 2 mM dithiothreitol, 0.05 mM sodium orthovanadate). Following a 15-minute incubation at room temperature, the kinase reaction was started with the addition of 5 μl of 400 nM fluorescein-labeled LRRKtide peptide substrate and 134 μM ATP solution in 1× assay buffer. The reaction was allowed to progress at ambient temperature for 90 minutes. The reaction was then stopped by the addition of 20 μl of TR-FRET Dilution Buffer (Life Technologies, Carlsbad, CA) containing 2 nM Tb-labeled anti-phospho LRRKtide antibody and 10 mM EDTA (Life Technologies, Carlsbad, CA). After an incubation of 1 h at room temperature, the plate was read on an EnVision multimode plate reader (Perkin Elmer, Waltham, MA) with an excitation wavelength of 337 nm (Laser) and a reading emission at both 520 and 495 nm. Compound IC50s were interpolated from nonlinear regression best fits of the log of the final compound concentration, plotted as a function of the 520/495-nm emission ratio using Activity base. Abase uses a 4 parameter (4P) logistic fit based on the Levenberg-Marquardt algorithm.

Sequence of GST-tagged truncated human mutant G2019S LRRK2 (Q5S007 970-2527 G2019S): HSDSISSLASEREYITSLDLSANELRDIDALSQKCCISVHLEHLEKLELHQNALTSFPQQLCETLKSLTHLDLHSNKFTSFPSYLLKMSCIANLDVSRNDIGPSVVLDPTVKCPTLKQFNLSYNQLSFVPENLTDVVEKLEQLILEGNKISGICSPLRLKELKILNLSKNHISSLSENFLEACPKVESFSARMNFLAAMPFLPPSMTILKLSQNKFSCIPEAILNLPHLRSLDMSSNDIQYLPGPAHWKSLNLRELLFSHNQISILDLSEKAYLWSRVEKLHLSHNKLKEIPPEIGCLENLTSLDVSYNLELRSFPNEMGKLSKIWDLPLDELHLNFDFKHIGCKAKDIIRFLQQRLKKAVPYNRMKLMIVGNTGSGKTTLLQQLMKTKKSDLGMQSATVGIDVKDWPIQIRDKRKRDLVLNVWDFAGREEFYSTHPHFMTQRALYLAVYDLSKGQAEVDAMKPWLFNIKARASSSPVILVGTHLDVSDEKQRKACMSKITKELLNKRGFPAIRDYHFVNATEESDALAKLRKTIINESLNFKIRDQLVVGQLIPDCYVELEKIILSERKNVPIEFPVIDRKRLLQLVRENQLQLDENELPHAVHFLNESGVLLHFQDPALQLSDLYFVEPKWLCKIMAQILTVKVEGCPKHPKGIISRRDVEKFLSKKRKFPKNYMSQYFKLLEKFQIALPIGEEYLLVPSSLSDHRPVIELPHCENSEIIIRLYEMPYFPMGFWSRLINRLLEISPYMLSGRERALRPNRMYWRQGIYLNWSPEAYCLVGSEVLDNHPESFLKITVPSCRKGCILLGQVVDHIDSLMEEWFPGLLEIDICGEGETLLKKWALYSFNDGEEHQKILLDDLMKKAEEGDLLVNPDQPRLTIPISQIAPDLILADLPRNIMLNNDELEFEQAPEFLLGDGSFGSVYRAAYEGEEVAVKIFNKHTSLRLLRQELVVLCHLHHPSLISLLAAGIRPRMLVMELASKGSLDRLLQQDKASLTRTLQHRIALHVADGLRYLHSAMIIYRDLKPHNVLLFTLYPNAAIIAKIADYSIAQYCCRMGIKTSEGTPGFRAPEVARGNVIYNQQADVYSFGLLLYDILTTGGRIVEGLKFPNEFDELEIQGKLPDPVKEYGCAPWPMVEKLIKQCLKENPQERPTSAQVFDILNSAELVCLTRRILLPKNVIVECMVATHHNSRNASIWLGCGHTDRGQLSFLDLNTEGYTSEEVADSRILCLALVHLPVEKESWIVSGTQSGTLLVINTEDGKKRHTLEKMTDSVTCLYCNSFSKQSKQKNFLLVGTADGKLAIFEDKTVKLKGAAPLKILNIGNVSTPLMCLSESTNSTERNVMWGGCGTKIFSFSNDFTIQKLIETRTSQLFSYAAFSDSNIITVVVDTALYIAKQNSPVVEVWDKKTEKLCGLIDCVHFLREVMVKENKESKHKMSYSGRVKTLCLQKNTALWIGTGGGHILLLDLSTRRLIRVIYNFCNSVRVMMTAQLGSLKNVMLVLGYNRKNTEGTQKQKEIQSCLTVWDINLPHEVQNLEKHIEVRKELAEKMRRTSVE

`Cc1nn(C2CCC2)c2c1OC[C@H]1CN(C3COCC3F)C[C@@H]1Nc1nc(ncc1C(F)(F)F)N2` (mixture of isomers) [Ex-3.1, (10aS,13aR)- and (10aR,13aS)-3-cyclobutyl-12-(4-fluorotetrahydrofuran-3-yl)-1-methyl-8-(trifluoromethyl)-3,4,10a,11,12,13,13a,14-octahydro-10H-5,9-(azeno)pyrazolo[4,3-b]pyrrolo[3,4-k][1]oxa[4,6,10]triazacyclotridecine] was tested, and the “LRRK2 pIC50” value was >10.09.
`Cc1nn(C(C)C)c2c1OC[C@@H]1COC[C@H]1Nc1cc(ncc1C(F)(F)F)N2` [Ex-13.5, (10aS,13aS)-3-isopropyl-1-methyl-8-(trifluoromethyl)-3,4,10a,11,13a,14-hexahydro-10H,13H-5,9-(metheno)furo[3,4-k]pyrazolo[4,3-b][1]oxa[4,6,10]triazacyclotridecine] was tested, and the “LRRK2 pIC50” value was >10.09.
For `CC(C)(C#N)c1nn(C2CCC2)c2c1OC[C@@H]1COC[C@H]1Nc1nc(ncc1C(F)(F)F)N2` [Ex-2.48, 2-((10aS,13aS)-3-cyclobutyl-8-(trifluoromethyl)-3,4,10a,11,13a,14-hexahydro-10H,13H-5,9-(azeno)furo[3,4-k]pyrazolo[4,3-b][1]oxa[4,6,10]triazacyclotridecin-1-yl)-2-methylpropanenitrile], the “LRRK2 pIC50” value was >10.09.
In the case of `CC(C)(O)Cn1nc(C2CC2)c2c1OC[C@@H]1CC[C@H]1Nc1nc(ncc1C(F)(F)F)N2` [Ex-1.21, 1-((10aR,12aR)-3-cyclopropyl-8-(trifluoromethyl)-10,10a,11,12,12a,13-hexahydro-5,9-(azeno)cyclobuta[k]pyrazolo[3,4-b][1]oxa[4,6,10]triazacyclotridecin-1(4H)-yl)-2-methylpropan-2-ol], the “LRRK2 pIC50” value was >10.09.

Compared with `Cn1nc(C(F)(F)F)c2c1Nc1ncc(Cl)c(n1)N[C@@H]1COC[C@H]1CO2` [Ex-2.75, (10aS,13aS)-8-chloro-3-methyl-1-(trifluoromethyl)-3,4,10a,11,13a,14-hexahydro-10H,13H-5,9-(azeno)furo[3,4-k]pyrazolo[4,3-b][1]oxa[4,6,10]triazacyclotridecine], `Cc1nn(C)c2c1OCC[C@@H](C)Nc1nc(ncc1C(F)(F)F)N2` (mixture of isomers) [Ex-2.2, (R)- and (S)-1,3,7-trimethyl-10-(trifluoromethyl)-1,5,6,7,8,14-hexahydro-9,13-(azeno)pyrazolo[4,3-b][1]oxa[4,6,10]triazacyclotridecine] is lower in “LRRK2 pIC50” value: 9.50 for the first, 5.45 for the second.

Going from `Cc1nn(C)c2c1Nc1ncc(C(F)(F)F)c(n1)N[C@H](C)CCO2` [Ex-1.4, (R)-1,3,11-trimethyl-8-(trifluoromethyl)-1,4,10,11,12,13-hexahydro-5,9-(azeno)pyrazolo[3,4-b][1]oxa[4,6,10]triazacyclotridecine] to `Cc1nn(C)c2c1CCC[C@@H](C)Nc1nc(ncc1C(F)(F)F)N2` (single isomer, unassigned) [Ex-11.1, (R)- or (S)-1,3,7-Trimethyl-10-(trifluoromethyl)-4,5,6,7,8,14-hexahydro-1H-9,13-(azeno)pyrazolo[4,3-l][1,3,7]triazacyclotridecine], the “LRRK2 pIC50” value falls from 8.93 to 8.49.

Compared with `FC(F)(F)c1cnc2nc1NC1CCC1COc1c(C3CCOC3)nn(C3CCC3)c1N2` [Ex-2.65, (10aR,12aR)-3-cyclobutyl-1-((R)-(10aR,12aR)-3-cyclobutyl-1-((S)-(10aS,12aS)-3-cyclobutyl-1-((R)-(10aS,12aS)-3-cyclobutyl-1-((S)-tetrahydrofuran-3-yl)-8-(trifluoromethyl)-3,4,10,10a,11,12,12a,13-octahydro-5,9-(azeno)cyclobuta[k]pyrazolo[4,3-b][1]oxa[4,6,10]triazacyclotridecine], `Cc1nn(C2CCC2)c2c1OC[C@H]1CC[C@H]1Nc1nc(ncc1C(F)(F)F)N2` (single isomer, unassigned) [Ex-2.22, (10aR,12aS)- or (10aS,12aR)-3-cyclobutyl-1-methyl-8-(trifluoromethyl)-3,4,10,10a,11,12,12a,13-octahydro-5,9-(azeno)cyclobuta[k]pyrazolo[4,3-b][1]oxa[4,6,10]triazacyclotridecine] is lower in “LRRK2 pIC50” value: 6.59 for the first, 5.76 for the second.

First: Cc1nn(C2CC2)c2c1OC[C@H]1CC[C@@H]1Oc1nc(ncc1C(F)(F)F)N2 [Ex-14.2, (10aR,13aS)- or (10aS,13aR)-3-Cyclopropyl-1-methyl-8-(trifluoromethyl)-3,4,10a,11,12a,13-hexahydro-12H-5,9-(azeno)cyclobuta[k]pyrazolo[4,3-b][1,10]dioxa[4,6]diazacyclotridecine]
Second: Cc1nn(C2CCC2)c2c1OC1COC[C@H]1CNc1nc(ncc1C(F)(F)F)N2 (single isomer, unassigned) [Ex-2.81, (11aR,14aS) or (11aS,14aR)-3-cyclobutyl-1-methyl-8-(trifluoromethyl)-3,4,10,11,11a,12,14,14a-octahydro-5,9-(azeno)furo[3,4-1]pyrazolo[4,3-b][1]oxa[4,6,10]triazacyclotridecine]
The “LRRK2 pIC50” value of the first is lower: 5.16 for the first, 5.99 for the second.

Going from `Cn1nc(C2CC2)c2c1OCC1CCC1Nc1nc(ncc1C(F)(F)F)N2` [Ex-1.8, (10aR,12aS)- or (10aS,12aR)-3-cyclopropyl-1-methyl-8-(trifluoromethyl)-1,4,10,10a,11,12,12a,13-octahydro-5,9-(azeno)cyclobuta[k]pyrazolo-[3,4-b][1]oxa[4,6,10]triazacyclo-tridecine] to `Cc1nn(C(C)C)c2c1OCCC(C)Nc1nc(ncc1C(F)(F)F)N2` (single isomer, unassigned) [Ex-2.8, (R)- or (S)-1-isopropyl-3,7-dimethyl-10-(trifluoromethyl)-1,5,6,7,8,14-hexahydro-9,13-(azeno)pyrazolo[4,3-b][1]oxa[4,6,10]triazacyclotridecine], the “LRRK2 pIC50” value rises from 5.94 to 9.48.

Compared with `Cc1nn(C2CCC2)c2c1OC[C@H]1CN(CCO1)c1nc(ncc1C(F)(F)F)N2` (single isomer, unassigned) [Ex-21.1, (6R)- or (6S)-1-cyclobutyl-3-methyl-12-(trifluoromethyl)-1,5,6,8,9,16-hexahydro-11,15-(azeno)-6,10-methanopyrazolo[4,3-e][1,4]dioxa[7,9,13]triazacyclopentadecine], `Cc1nn(C2CCC2)c2c1OC1COC[C@@H]1CNc1nc(ncc1Cl)N2` (stereo partly drawn) [Ex-2.83, (11aR,14aR)- or (11aS,14aS) 8-chloro-3-cyclobutyl-1-methyl-3,4,10,11,11a,12,14,14a-octahydro-5,9-(azeno)furo[3,4-1]pyrazolo[4,3-b][1]oxa[4,6,10]triazacyclotridecine] is lower in “LRRK2 pIC50” value: 6.09 for the first, 5.76 for the second.

`C[C@@H]1CCOc2cn(C)nc2Nc2ncc(Cl)c(n2)N1` [Ex-18.1, (R)-10-chloro-2,7-dimethyl-2,5,6,7,8,14-hexahydro-9,13-(azeno)pyrazolo[4,3-b][1]oxa[4,6,10]triazacyclotridecine] was tested, and the “LRRK2 pIC50” value was 7.94.

Same assay, conditions: G2019S LRRK2, 134 μM ATP (Km ATP), LRRKtide substrate; read-out: LRRK2 pIC50 (converted)

`Cc1nn(C2CCC2)c2c1OCC[C@@H]1COCCN1c1nc(ncc1C(F)(F)F)N2` (single isomer, unassigned) [Ex-21.3, (R) or (S)-3-cyclobutyl-1-methyl-8-(trifluoromethyl)-3,4,11,12,14,14a,15,16-octahydro-5,9-(azeno)[1,4]oxazino[4,3-j]pyrazolo[4,3-b][1]oxa[4,6,10]triazacyclotridecine] gave an IC50 of 22.9 nM.
